Holding throughout (format): cell-based
For one experiment, the target named is T1, SST2 (Homo sapiens, UniProt P30874).
T1 construct: host or cells: PathHunter CHO-K1 SST2 cells
Put plainly: PathHunter CHO-K1 SST2 Internalization Assay. The conditions noted are these: PathHunter CHO-K1 SST2 cells; 90 min at 37 C; luminescence; read-out: Internalization EC50. The gist of the method: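 Four-parameter nonlinear fits of background-corrected luminescence (duplicate means) gave IC50s. NDCs were serially diluted 1:3 over 11 points from a 10 uM final top concentration and incubated 90 min at 37 C with human SST2 CHO-K1 cells plated 48 h earlier at 2500/well. Beta-Glo read-out developed 60 min at RT.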

Experiment [1] deals with T2, human somatostatin receptor subtype 2 (Homo sapiens, UniProt P30874).
T2 construct: expressed in transfected cells
Put plainly: Functional assay for SSTR2 agonists (HTRF cAMP). The conditions noted are these: CHO-K1 cells stably expressing human SST2; NKH477-stimulated cAMP; 20 min at 37 C; read-out: hSST2 cAMP Avg EC50. Summed up:
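Agonist activity read as fall in intracellular cAMP: HTRF 665/620 nm ratio regressed to a cAMP standard curve, EC50 fitted. Stable human SSTR2 CHO-K1 cells exposed 20 min at 37 °C to compound, final concentrations typically 0-10,000 nM.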
For orientation: TR-FRET usually uses a lanthanide donor and a delayed reading to cut background.

For experiment [2], the system named is NCI-H524 human small cell lung cancer cells. Put plainly: H524 assay: inhibition of cell proliferation (CellTiter Glo). The note with it: 2 h treatment, washout, additional 70 h incubation. Summed up: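 Proliferation was measured by CellTiter Glo 70 h after a washout that followed a 2 h pulse of NDC. Doses were an 11-point, two-fold dilution series from 1 uM. IC50 was fitted with a four-parameter model to luminescence-based % inhibition relative to control cells.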
On the technique in general: Cellular ATP, detected with luciferase, serves as a proxy for viable cell number.

T2 sequence (P30874 whole entry): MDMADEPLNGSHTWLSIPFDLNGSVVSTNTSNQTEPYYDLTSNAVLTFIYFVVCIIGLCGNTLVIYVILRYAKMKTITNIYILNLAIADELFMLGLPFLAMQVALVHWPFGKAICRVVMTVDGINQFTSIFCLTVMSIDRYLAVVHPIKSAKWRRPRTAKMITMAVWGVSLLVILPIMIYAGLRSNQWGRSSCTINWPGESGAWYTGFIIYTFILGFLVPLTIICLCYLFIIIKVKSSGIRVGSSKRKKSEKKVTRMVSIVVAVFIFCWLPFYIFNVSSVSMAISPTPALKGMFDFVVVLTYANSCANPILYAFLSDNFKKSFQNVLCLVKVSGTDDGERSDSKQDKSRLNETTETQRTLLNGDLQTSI
T1 sequence (P30874 whole entry): as above

The EC50 is the concentration needed to bring the measured effect to its halfway point. Turning to `CC[C@H](C)[C@@H]([C@@H](CC(=O)N1CCC[C@H]1[C@H](OC)[C@@H](C)C(=O)N[C@H](C)[C@@H](O)c1ccccc1)OC)N(C)C(=O)[C@@H](NC(=O)[C@H](C(C)C)N(C)C(=O)OCc1ccc(NC(=O)[C@H](C)NC(=O)[C@@H](NC(=O)[C@H](CS(=O)(=O)O)NC(=O)CCOCCC(=O)NCCNc2ncc(-c3cc(C)cc(F)c3)c(N3CCC(N)CC3)c2-c2nc3ccc(Cl)cc3[nH]2)C(C)C)cc1C(=O)NCCN)C(C)C` [Compound 27], the half-maximal effective concentration (EC50) on SST2 was determined as 7.2 nM; in experiment [1], 0.12 nM; in experiment [2] it was 190 nM.

Consider `CC[C@H](C)[C@@H]([C@@H](CC(=O)N1CCC[C@H]1[C@H](OC)[C@@H](C)C(=O)N[C@H](C)[C@@H](O)c1ccccc1)OC)N(C)C(=O)[C@@H](NC(=O)[C@H](C(C)C)N(C)C(=O)OCc1ccc(NC(=O)[C@H](CCCNC(N)=O)NC(=O)[C@@H](NC(=O)[C@@H](CS(=O)(=O)O)NC(=O)CCOCCC(=O)NCCNc2ncc(-c3cc(C)cc(F)c3)c(N3CCC(N)CC3)c2-c2nc3ccc(Cl)cc3[nH]2)C(C)C)cc1C(=O)NCCN)C(C)C` [Compound 28], for which the EC50 at SST2 amounted to 11 nM; in experiment [1], 0.074 nM; in experiment [2], 120 nM.

`CC[C@H](C)[C@@H]([C@@H](CC(=O)N1CCC[C@H]1[C@H](OC)[C@@H](C)C(=O)N[C@H](C)[C@@H](O)c1ccccc1)OC)N(C)C(=O)[C@@H](NC(=O)[C@H](C(C)C)N(C)C(=O)OCc1ccc(NC(=O)[C@H](CCCNC(N)=O)NC(=O)[C@@H](NC(=O)CCOCCC(=O)NCCNc2ncc(-c3cc(C)cc(F)c3)c(N3CCC(N)CC3)c2-c2nc3ccc(Cl)cc3[nH]2)C(C)C)c(O[C@@H]2O[C@H](C(=O)NCCNC(=O)CCC(=O)NS(=O)(=O)c3ccc4ccccc4c3)[C@@H](O)[C@H](O)[C@H]2O)c1)C(C)C` [Compound 224]: the values for the EC50 (on SST2; in experiment [1]; in experiment [2]) were 3.2 nM, 0.068 nM and 27 nM, respectively.

As for `CC[C@H](C)[C@@H]([C@@H](CC(=O)N1CCC[C@H]1[C@H](OC)[C@@H](C)C(=O)N[C@H](C)[C@@H](O)c1ccccc1)OC)N(C)C(=O)[C@@H](NC(=O)[C@H](C(C)C)N(C)C(=O)OCc1ccc(NC(=O)[C@H](CCCNC(N)=O)NC(=O)[C@@H](NC(=O)CCOCCC(=O)NCCNc2ncc(-c3cc(C)cc(F)c3)c(N3CCC(N)CC3)c2-c2nc3ccc(Cl)cc3[nH]2)C(C)C)c(O[C@@H]2O[C@H](C(=O)NCCN)[C@@H](O)[C@H](O)[C@H]2O)c1)C(C)C` [Compound 40], the figures for the concentration giving a half-maximal response (EC50) (at SST2; in experiment [1]; in experiment [2]) were 8.7 nM, 0.2 nM and 1.7 nM, respectively.

With `CC[C@H](C)[C@@H]([C@@H](CC(=O)N1CCC[C@H]1[C@H](OC)[C@@H](C)C(=O)N[C@H](C)[C@@H](O)c1ccccc1)OC)N(C)C(=O)[C@@H](NC(=O)[C@H](C(C)C)N(C)C(=O)OCc1ccc(NC(=O)[C@H](C)NC(=O)[C@@H](NC(=O)CN(C)C(=O)CCOCCC(=O)NCCNc2ncc(-c3cc(C)cc(F)c3)c(N3CCC(N)CC3)c2-c2nc3ccc(Cl)cc3[nH]2)C(C)C)c(O[C@@H]2O[C@H](C(=O)O)[C@@H](O)[C@H](O)[C@H]2O)c1)C(C)C` [Compound 111], the EC50 at SST2 came to 8.7 nM; in experiment [1] it was 0.046 nM; in experiment [2], 19 nM.

Take `CC[C@H](C)[C@@H]([C@@H](CC(=O)N1CCC[C@H]1[C@H](OC)[C@@H](C)C(=O)N[C@H](C)[C@@H](O)c1ccccc1)OC)N(C)C(=O)[C@@H](NC(=O)[C@H](C(C)C)N(C)C(=O)OCc1ccc(NC(=O)[C@H](C)NC(=O)[C@@H](NC(=O)CCOCCC(=O)N(C)CC(=O)NCCNc2ncc(-c3cc(C)cc(F)c3)c(N3CCC(N)CC3)c2-c2nc3ccc(Cl)cc3[nH]2)C(C)C)c(O[C@@H]2O[C@H](C(=O)NCCO)[C@@H](O)[C@H](O)[C@H]2O)c1)C(C)C` [Compound 206]: the EC50 on SST2 came out at 4.5 nM; in experiment [1] it was 0.12 nM; in experiment [2] it was 14 nM.

For the molecule `CC[C@H](C)[C@@H]([C@@H](CC(=O)N1CCC[C@H]1[C@H](OC)[C@@H](C)C(=O)N[C@H](C)[C@@H](O)c1ccccc1)OC)N(C)C(=O)[C@@H](NC(=O)C(C(C)C)N(C)C(=O)OCc1ccc(NC(=O)[C@H](CCCNC(N)=O)NC(=O)[C@@H](NC(=O)CCOCCC(=O)NCCNc2ncc(-c3cc(C)cc(F)c3)c(N3CCC(N)CC3)c2-c2nc3ccc(Cl)cc3[nH]2)C(C)C)c(O[C@@H]2O[C@H](C(=O)N3CCC(C(=O)O)CC3)[C@@H](O)[C@H](O)[C@H]2O)c1)C(C)C` (stereo partly drawn) [Compound 235], the EC50 on SST2 was 4.4 nM; in experiment [1] it was 0.11 nM; in experiment [2], 14 nM.

`CC[C@H](C)[C@@H]([C@@H](CC(=O)N1CCC[C@H]1[C@H](OC)[C@@H](C)C(=O)N[C@H](C)[C@@H](O)c1ccccc1)OC)N(C)C(=O)[C@@H](NC(=O)[C@H](C(C)C)N(C)C(=O)OCc1ccc(NC(=O)[C@H](CCCNC(N)=O)NC(=O)[C@@H](NS(=O)(=O)C[C@H](C)CC(=O)CCOCCC(=O)NCCNc2ncc(-c3cc(C)cc(F)c3)c(N3CCC(N)CC3)c2-c2nc3ccc(Cl)cc3[nH]2)C(C)C)c(O[C@@H]2C[C@H](C(=O)O)[C@@H](O)[C@H](O)[C@H]2O)c1)C(C)C` [Compound 132]: the EC50 at SST2 turned out to be 3.2 nM; in experiment [1], 0.26 nM; in experiment [2], 410 nM.

As to `CC[C@H](C)[C@@H]([C@@H](CC(=O)N1CCC[C@H]1[C@H](OC)[C@@H](C)C(=O)N[C@H](C)[C@@H](O)c1ccccc1)OC)N(C)C(=O)[C@@H](NC(=O)[C@H](C(C)C)N(C)C(=O)OCc1ccc(NC(=O)[C@H](CCCNC(N)=O)NC(=O)[C@@H](NC(=O)c2cc(NCCOCCOCCOCCC(=O)NCCNc3ncc(-c4cc(C)cc(F)c4)c(N4CCC(N)CC4)c3-c3nc4ccc(Cl)cc4[nH]3)cc(C(=O)NCCN)c2)C(C)C)cc1)C(C)C` [Compound 179], the EC50 at SST2 is 9.8 nM; in experiment [1], 0.54 nM; in experiment [2] it was 370 nM.

On to `CC[C@H](C)[C@@H]([C@@H](CC(=O)N1CCC[C@H]1[C@H](OC)[C@@H](C)C(=O)N[C@H](C)[C@@H](O)c1ccccc1)OC)N(C)C(=O)[C@@H](NC(=O)[C@H](C(C)C)N(C)C(=O)OCc1ccc(NC(=O)[C@H](C)NC(=O)[C@@H](NC(=O)C[C@@H](N)C(=O)NCCOCCOCCC(=O)NCCNc2ncc(-c3cc(C)cc(F)c3)c(N3CCC(N)CC3)c2-c2nc3ccc(Cl)cc3[nH]2)C(C)C)c(O[C@@H]2O[C@H](C(=O)O)[C@@H](O)[C@H](O)[C@H]2O)c1)C(C)C` [Compound 136], for which the EC50 at SST2 is 3.5 nM; in experiment [1], 0.29 nM; in experiment [2] it was 540 nM.

Consider `CC[C@H](C)[C@@H]([C@@H](CC(=O)N1CCC[C@H]1[C@H](OC)[C@@H](C)C(=O)N[C@H](C)[C@@H](O)c1ccccc1)OC)N(C)C(=O)[C@@H](NC(=O)[C@H](C(C)C)N(C)C(=O)OCc1ccc(NC(=O)[C@H](CCCNC(N)=O)NC(=O)[C@@H](NC(=O)[C@H](CCC(=O)O)NC(=O)CCOCCC(=O)NCCNc2ncc(-c3cc(C)cc(F)c3)c(N3CCC(N)CC3)c2-c2nc3ccc(Cl)cc3[nH]2)C(C)C)cc1C(=O)N1CC(N)C1)C(C)C` [Compound 91], for which the EC50 came out at 2.5 nM at SST2, 0.46 nM in experiment [1] and 1000 nM in experiment [2].

The record behind these values is patent US20260007758A1, “SO[…]-2 RECEPTOR (SST2R) NON-PEPTIDE DRUG CONJUGATES AND USES THEREOF” (Crinetics Pharmaceuticals, Inc., priority 2024, published 2026).
